Columns and labels:
[1] = molecular target: T1, aryl hydrocarbon receptor (AhR) (Homo sapiens, UniProt P35869); assay: AhR luciferase reporter transactivation in AhR-transfected HepG2 cells; effects lost in AhR-/- macrophages; assay type: cell-based
T1 construct: pCMVXL4AhR transfected in HepG2 cells
T1 sequence (P35869 11-848): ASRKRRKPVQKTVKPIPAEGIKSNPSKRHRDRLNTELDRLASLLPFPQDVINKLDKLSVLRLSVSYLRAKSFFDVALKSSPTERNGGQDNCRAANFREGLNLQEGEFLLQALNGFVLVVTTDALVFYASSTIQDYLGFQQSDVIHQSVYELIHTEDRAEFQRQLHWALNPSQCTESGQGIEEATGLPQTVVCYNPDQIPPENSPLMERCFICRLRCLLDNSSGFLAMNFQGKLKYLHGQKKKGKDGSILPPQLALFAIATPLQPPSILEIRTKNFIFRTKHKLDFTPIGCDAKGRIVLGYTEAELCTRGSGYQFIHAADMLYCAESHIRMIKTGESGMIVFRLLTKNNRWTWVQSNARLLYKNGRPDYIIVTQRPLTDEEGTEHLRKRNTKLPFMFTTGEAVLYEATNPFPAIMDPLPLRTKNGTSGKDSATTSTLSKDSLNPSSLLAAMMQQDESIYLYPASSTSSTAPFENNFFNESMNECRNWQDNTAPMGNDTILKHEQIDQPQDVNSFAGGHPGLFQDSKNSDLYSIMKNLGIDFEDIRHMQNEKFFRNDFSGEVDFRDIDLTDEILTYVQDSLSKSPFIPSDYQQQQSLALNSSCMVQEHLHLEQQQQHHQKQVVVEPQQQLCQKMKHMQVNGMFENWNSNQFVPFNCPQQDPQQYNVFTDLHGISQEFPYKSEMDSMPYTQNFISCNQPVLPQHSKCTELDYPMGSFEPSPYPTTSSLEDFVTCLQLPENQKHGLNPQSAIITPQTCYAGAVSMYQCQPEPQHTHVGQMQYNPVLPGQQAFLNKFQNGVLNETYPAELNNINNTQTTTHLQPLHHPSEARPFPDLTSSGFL

[2] = molecular target: T1, aryl hydrocarbon receptor (AhR); assay: AhR luciferase reporter transactivation in AhR-transfected HepG2 cells; assay type: cell-based

Row | EC50 [1] | SMILES | EC50 [2]
1 | 1970 nM | COc1ccc(-c2[o+]c3cc(OC)cc(OC)c3cc2O)cc1 [Mt-P, methylated pelargonidin] | –
2 | – | Oc1ccc(-c2[o+]c3cc(O)cc(O)c3cc2O)cc1 [P, pelargonidin] | 4 µM

From article PMC6723439, “The Aryl Hydrocarbon Receptor (AhR) Mediates the Counter-Regulatory Effects of Pelargonidins in Models of Inflammation and Metabolic Dysfunctions” (Nutrients, 2019)
